Experimental data from patent US9439415B2, “Method for reducing damage by harmful organisms in corn cultivation” (priority 2012, dated 2016).

Legend:
Agriotes spp. = experiment: Field furrow spray test, mortality of corn plants from damage by Agriotes spp. (Example 9); assay type: in vivo; conditions: 50 g/ha, furrow spray 100 L/ha, 34 days after treatment, average of four sections, non-treatment section 16.35
Procedure: A land was ditched at intervals of 80 cm, a predetermined amount of a water-diluted liquid of an esfenvalerate emulsifiable concentrate (using 25 g/L of an EC preparation, trade name: Sumialpha 2.5 EC, manufactured by Philagro) or a water-diluted liquid of a lambda-cyhalothrin SC (using 100 g/L of a SC preparation, trade name: KAPATE ZEON, manufactured by SYNGENTA) was prepared so that the applied amount of an effective component was the amount described in Table 4, and the furrow was spray-treated with the liquid at a spray amount of 100 L/ha. Then, the furrow was seeded with corn (Zea Mays, variety name: Kubrik), and a soil on the side of the furrow was gathered together to close the furrow. A seeding density of corn was 87500 seeds/ha. They were defined as example sections 16 and 17.
For comparison, a non-treatment section, which was seeded with corn in the same manner as in the example sections except that a treatment with a chemical was not performed, was provided. […]
34 days after the treatment with a chemical, the number of plants of corn grown in each of the example sections 16 and 17 and the non-treatment section were investigated, a mortality of plants of corn died because of the damage by Agriotes spp. was calculated in accordance with the following equation, and then an average mortality of the four investigation sections was determined. […]

[1] = test system: Diabrotica virgifera virgifera and Agriotes lineatus; experiment: Field furrow application test, lodge rate of corn due to damage by Diabrotica virgifera virgifera and Agriotes lineatus (Examples 4-8, 10, 11); assay type: in vivo; conditions: 165 days after application, versus non-treatment section
Text: A chemical fertilizer (N:P:K=15:15:15) is applied to the soil surface of a cultivated land at 300 kg/ha, and the cultivated land is then plowed.
7 days after fertilization, for suppressing generation of weeds, the soil surface of the whole cultivated land is spray-treated with a mixed liquid containing thiencarbazone-methyl and isoxaflutole, each of which being a herbicide, and cyprosulfamide which is a safener at 150 L/ha so that the application amounts of thiencarbazone-methyl, isoxaflutole and cyprosulfamide are 9.2 g/ha, 23 g/ha and 15 g/ha, respectively. […]
17 days after application of clothianidin and tefluthrin, the number of plants of corn germinated is investigated, with central two rows of four rows of seeded furrows as an investigation section, for the treatment section and the non-treatment section. 165 days after application of clothianidin and tefluthrin, the number of plants of corn lodged due to damage by Diabrotica virgifera virgifera and Agriotes lineatus in the furrows of the treatment section and the non-treatment section, for which the number of plants of corn germinated is investigated, is investigated, a lodge rate is calculated in accordance with the following equation, and then an average lodge rate for the four investigation sections is determined. […]

Structure (SMILES) | Average mortality (%) (Agriotes spp.) | Lodge rate (%) ([1]; Example 11: water-diluted lambda-cyhalothrin SC in furrow, 100 g/ha) | Lodge rate (%) ([1]; Example 10: water-diluted Sumialpha 2.5 EC in furrow, esfenvalerate 100 g/ha)
CC1(C)[C@H](C(=O)O[C@H](C#N)c2cccc(Oc3ccccc3)c2)[C@@H]1/C=C(\Cl)C(F)(F)F (racemic) [Lambda-cyhalothrin] | 3.35 | low lodge rate as compared to the non-treatment section | –
CC(C)[C@H](C(=O)O[C@H](C#N)c1cccc(Oc2ccccc2)c1)c1ccc(Cl)cc1 [Esfenvalerate] | 4.85 | – | low lodge rate as compared to the non-treatment section
